# Patent publication US11098294B2, “Anti-inflammatory peptides and composition comprising same” (GemVax & KAEL Co., Ltd., priority 2012, dated 2021)
# Key:
# Type in all cases: cell-based
# IL-6 = IL-6 secretion measurement (ELISA) in LPS-challenged RAW 264.7 cells; details: RAW 264.7 cell, LPS 1 μg/mL, PEP 1 5 μg/ml, 24 hr
# Description: (§1) Raw 264.7 macrophage cell (KCBL, 40071) from Korea Cell Bank was maintained in Dulbecco's modified Eagle's medium (DMEM; PAA, Austria) containing 10% fetal bovine serum (FBS; Gibco Laboratories), 100 unit/mL of streptomycin, and penicillin (Gibco Laboratories) at 37° C. with 5% CO2. Raw264.7 cells were seeded into a 96-well plate at a density of 1×10^6 cells/mL and incubated overnight.
# (§2) On the following day, the medium was replaced with fresh medium and 5 μg/mL of peptide (obtained as described in Experiment example 1) was added to the cells. After 30 min incubation of cells with the peptide 50 μL of LPS (to a final concentration of 1 μg/mL) was added, and cells were incubated for additional 24 hr. The experimental sample with the induction of inflammatory response was treated with 1 μg/mL mL lipopolysaccharide (LPS; Sigma, USA) and control sample was treated with phosphate buffered saline (PBS; pH 7.2). The supernatant samples from each condition was collected in eppendorf tubes and subjected to further analysis.
# To investigate the effect of PEP1 on inhibiting pro-inflammatory cytokine production RAW 264.7 cell were pre-treated with PEP 1 at a concentration of 5 μg/mL challenged with LPS at a concentration of 1 μg/mL, and cells were further incubated for 24 hr. The supernatant samples containing cell culture medium was collected and analyzed for the cytokine levels using ELISA kits (eBioscience, San Diego).
# 96 wells plates were coated with 100 μl of capture antibodies (diluted in coating buffer to the concentration recommended by manufacturer's protocol) overnight at 4° C. Then, after washing the plates 5 times, 200 μL of assay diluents was added to each well and incubated for 1 hr at room temperature for blocking. […]
# Following incubation with the secondary antibody, the plate was washed five times and incubated with 100 μl of avidin-HRP (BD Bioscience) for 30 min at room temperature. […] The reaction was stopped by adding 50 μl of 2N H2SO4 in each well The optical density at 450 nm was measured using a microplate reader. […]
# TNF-α = test: Western blot, TNF-α expression inhibition, LPS-stimulated cells
# Description: as §1, §2
# (§3) Protein expression level was determined by Western blot analysis. […] The membrane was incubated with ECL (enhanced chemiluminesence) solution (Amersham Life Science Corp., Arlington Heights, Ill., USA), exposed to X-ray, and the level of protein expression was analyzed according to the exposure level shown on the X-ray film.
# COX-2 = test: Western blot, COX-2 expression inhibition, LPS-stimulated cells
# Description: as §1, §2, §3
# HMGB1 = test: Western blot, HMGB1 expression inhibition, LPS-stimulated cells
# Description: as §1, §2, §3
# nitric oxide (NO) = test: NO level analysis (Griess reagent) in LPS-stimulated Raw 264.7 cells; details: Raw 264.7 cell, LPS 1 μg/mL, PEP 1 0.5 μg/mL
# Description: as §1
# as §2, with “On the following day, the medium was replaced with fresh medium and 5 μg/mL of peptide (obtained as described in Experiment example 1) was added to the cells.” left out
# The level of nitric oxide (NO) was measured in Raw 264.7 cell (1×10^6 cell/ml) using Griess reagent system (Promega, USA). Culture medium of 50 μl was added to a 96-well plate and Griess reagent I […] are added in the same amount. After 10 min incubation of cells with the reagents, the optical density at 540 nm was measured within 30 min using a microplate reader (Molecular Devices, USA). The concentration of NO was calculated by using a standard curve (0˜100 μM) of sodium nitrite.
# [1] = cells treated with both LPS and Pep1
sequence,measurement,setting,value
EARPALLTSRLRFIPK [PEP 1],cytokine IL-6 production % of control,IL-6,28%
same,cytokine IL-6 production inhibition %,IL-6,72%
same,cytokine IL-6 production inhibition %,IL-6; listed as PEP-1,more than 70%
same,Cytokine Expression Level (band intensity) % of control TNF-α,"TNF-α; LPS 1 μg/ml, PEP 1 5 μg/ml",25%
same,decrease of pro-inflammatory cytokine level (TNF-α),TNF-α; [1],more than 70%
same,Cytokine Expression Level (band intensity) % of control COX-2,"COX-2; LPS 1 μg/ml, PEP 1 5 μg/ml",22%
same,decrease of pro-inflammatory cytokine level (COX),COX-2; [1],more than 70%
same,Cytokine Expression Level (band intensity) % of control HMGB1,"HMGB1; LPS 1 μg/ml, PEP 1 5 μg/ml",30%
same,decrease of pro-inflammatory cytokine level (HMGB1),HMGB1; [1],more than 70%
same,Decreased NO Expression Level (%),nitric oxide (NO),65%
same,NO Expression Level of control (%),nitric oxide (NO),35%
same,NO Expression Level of control (%),nitric oxide (NO); listed as Pep1,65%
